Laboratory results as given in patent US20220040129A1, “TREATMENT OF HYPERAMMONEMIA IN PATIENTS WITH RENAL INSUFFICIENCY” (RECORDATI S.p.A., priority 2019, published 2022).
Like-named read-outs stand apart in the source and are kept apart here.

How the values were obtained:
[1] = CARIV-A-001 Part B: cross-over IV infusion over 2 hours vs oral tablet 100 mg/kg in healthy subjects; assay type: in vivo, human; parameters: CL, Max / CL, Min: unit not given here; details: for AUCinf, Max / AUCinf, Min / aucL, Max / aucL, Min: in ng·h/mL; for AUC(0-inf) / clearance / Cmax / half-life / CL/F / bioavailability / AUC(0-t) / AUC: plasma; for AUC: read-out: aucL, Median
Procedure: The levels of CGA in plasma and urine were analysed using a fully validated method, which included LC-MS/MS analysis. The PK data were analysed based on a non-compartmental model. A model-based approach was implemented for the characterization of the PK properties of the IV formulation in order to estimate the level of PK exposure after different doses administered with different duration of infusion. The model outcomes provided rationales for supporting decision-making through the dose escalation process. The PK parameters were determined using SAS (version 9.3), and modelling of the PK data was performed using NONMEM (version 7.3, ICON Solutions). PART A: Mono-Centre, Randomized, Successive Groups, Double-Blind, Placebo-Controlled Study in Healthy Male and Female Subjects
Part B was a randomized, double-blind, cross-over, two-sequence study. It was conducted in 12 healthy male and female subjects.
In two treatment periods, separated by a washout of at least two weeks, subjects received a single administration of the study medication in fasting conditions, either as an IV loading dose infusion of Rec0/0491 over 2 hours (started with 6 mg/kg/h then reduced to 4.0 mg/kg/h), or an oral tablet administration of Carbaglu® (100 mg/kg).
Blood samples for PK measurements were collected at 19 timepoints for the IV administration and 17 timepoints for the oral administration. This included a sample prior to intake of the study medication and the period ranging from 20 minutes to 72 hours following the initiation of the IV infusion, and the period ranging from 30 minutes to 72 hours following oral intake. Urine was also collected for PK measurements, at the following intervals relative to the time of administration of the study medication: 0-6, 6-12, 12-24, 24-36 and 36-48 hours.
The PK analysis of Carbaglu was conducted on all subjects showing quantifiable plasma levels using standard non-compartmental approach.

[2] = Adverse reactions in retrospective studies of patients with NAGS deficiency, PA, MMA or IVA; assay type: in vivo, human; details: Total Population = 80
Description: Sixty-one percent (61%) of patients were male and 39% of patients were female. In patients with PA, MMA or IVA (48% male and 52% female patients), 57% of decompensation episodes occurred during the first 4 weeks after birth (neonates), and 43% of decompensation episodes occurred beyond the neonatal period. The median age at the start of the decompensation episode was 12 days.

[3] = both sexes, human, oral, OR, 100 mg/kg, N 12
[4] = both sexes, human, IV, 8 mg/kg, N 10
[5] = both sexes, human, IV, 12 mg/kg, N 2
[6] = dose normalized section, Reference (IV data), in h
[7] = dose normalized section, Test (oral data), in h
[8] = dose normalized, Reference (IV data)
[9] = dose normalized, Test (oral data)

## NC(=O)N[C@@H](CCC(=O)O)C(=O)O [carglumic acid, N-carbamoyl-L-glutamic acid]
[1]; 12 subjects
  Absolute bioavailability F of the oral vs IV formulation, GeoMean: 9.57%
[1]; 90% confidence limits vs reference limits of 0.8 and 1.25
  Equivalence of exposure, oral tablet 100 mg/kg vs IV infusion over 2 hours: non-equivalent level of exposure
[1]; IV, 8 mg/kg, N 10
  CL, Max: 0.472
  CL, Min: 0.225
  Cmax, Max: 11700 ng/mL
  Cmax, Min: 5400 ng/mL
  AUCinf, Max: 35564.90
  AUCinf, Min: 16949.96
  aucL, Max: 34579.31
  aucL, Min: 15713.03
[1]; IV, 8 mg/kg, N 10, in h
  HL (Half-life), Max: 52.95
  HL (Half-life), Min: 22.85
[1]; IV, 12 mg/kg, N 2
  CL, Max: 0.267
  CL, Min: 0.192
  Cmax, Max: 23500 ng/mL
  Cmax, Min: 19400 ng/mL
  AUCinf, Max: 62628.03
  AUCinf, Min: 45001.41
  aucL, Max: 61017.40
  aucL, Min: 43281.03
[1]; IV, 12 mg/kg, N 2, in h
  HL (Half-life), Max: 42.59
  HL (Half-life), Min: 27.23
[1]; OR, 100 mg/kg, N 12
  Cmax, Max: 5620 ng/mL
  Cmax, Min: 1950 ng/mL
  AUCinf, Max: 45696.37
  AUCinf, Min: 21852.27
  aucL, Max: 44250.17
  aucL, Min: 20030.59
[1]; OR, 100 mg/kg, N 12, in h
  HL (Half-life), Max: 35.31
  HL (Half-life), Min: 17.56
[1]; after IV administration
  Percent of dose excreted in urine: 82%
[1]; after oral administration
  Percent of dose excreted in urine: 7.5%
[1]; both sexes, human, plasma and urine, after IV administration, read-out: Renal clearance (converted)
  CL renal: ~5 mL/min/kg
[1]; both sexes, human, iv, 8 mg/kg, IV, 8 mg/kg, N 10, read-out: AUCinf, Mean
  AUC(0-inf): 24500 ng·h/mL
[1]; both sexes, human, iv, 8 mg/kg, IV, 8 mg/kg, N 10, read-out: AUCinf, Median
  AUC(0-inf): 23700 ng·h/mL
[1]; both sexes, human, iv, 8 mg/kg, IV, 8 mg/kg, N 10, read-out: CL, Mean (converted)
  clearance: 5.65 mL/min/kg
[1]; both sexes, human, iv, 8 mg/kg, IV, 8 mg/kg, N 10, read-out: CL, Median (converted)
  clearance: 5.63 mL/min/kg
[1]; both sexes, human, iv, 8 mg/kg, IV, 8 mg/kg, N 10, read-out: Cmax, Mean
  Cmax: 8610 ng/mL
[1]; both sexes, human, iv, 8 mg/kg, IV, 8 mg/kg, N 10, read-out: Cmax, Median
  Cmax: 8760 ng/mL
[1]; both sexes, human, iv, 8 mg/kg, IV, 8 mg/kg, N 10, read-out: HL (Half-life), Mean (converted)
  half-life: 30.6 h
[1]; both sexes, human, iv, 8 mg/kg, IV, 8 mg/kg, N 10, read-out: HL (Half-life), Median (converted)
  half-life: 28.8 h
[1]; both sexes, human, iv, 12 mg/kg, IV, 12 mg/kg, N 2, read-out: AUCinf, Mean
  AUC(0-inf): 53800 ng·h/mL
[1]; both sexes, human, iv, 12 mg/kg, IV, 12 mg/kg, N 2, read-out: AUCinf, Median
  AUC(0-inf): 53800 ng·h/mL
[1]; both sexes, human, iv, 12 mg/kg, IV, 12 mg/kg, N 2, read-out: CL, Mean (converted)
  clearance: 3.82 mL/min/kg
[1]; both sexes, human, iv, 12 mg/kg, IV, 12 mg/kg, N 2, read-out: CL, Median (converted)
  clearance: 3.82 mL/min/kg
[1]; both sexes, human, iv, 12 mg/kg, IV, 12 mg/kg, N 2, read-out: Cmax, Mean
  Cmax: 21400 ng/mL
[1]; both sexes, human, iv, 12 mg/kg, IV, 12 mg/kg, N 2, read-out: Cmax, Median
  Cmax: 21400 ng/mL
[1]; both sexes, human, iv, 12 mg/kg, IV, 12 mg/kg, N 2, read-out: HL (Half-life), Mean (converted)
  half-life: 34.9 h
[1]; both sexes, human, iv, 12 mg/kg, IV, 12 mg/kg, N 2, read-out: HL (Half-life), Median (converted)
  half-life: 34.9 h
[1]; both sexes, human, iv, after IV administration, read-out: Total clearance (converted)
  clearance: 5.17 mL/min/kg
[1]; both sexes, human, oral, 100 mg/kg, OR, 100 mg/kg, N 12, read-out: AUCinf, Mean
  AUC(0-inf): 31400 ng·h/mL
[1]; both sexes, human, oral, 100 mg/kg, OR, 100 mg/kg, N 12, read-out: AUCinf, Median
  AUC(0-inf): 30200 ng·h/mL
[1]; both sexes, human, oral, 100 mg/kg, OR, 100 mg/kg, N 12, read-out: CL/F, Mean (converted)
  CL/F: 55.6 mL/min/kg
[1]; both sexes, human, oral, 100 mg/kg, OR, 100 mg/kg, N 12, read-out: CL/F, Median (converted)
  CL/F: 55.2 mL/min/kg
[1]; both sexes, human, oral, 100 mg/kg, OR, 100 mg/kg, N 12, read-out: Cmax, Mean
  Cmax: 3280 ng/mL
[1]; both sexes, human, oral, 100 mg/kg, OR, 100 mg/kg, N 12, read-out: Cmax, Median
  Cmax: 2940 ng/mL
[1]; both sexes, human, oral, 100 mg/kg, OR, 100 mg/kg, N 12, read-out: HL (Half-life), Mean (converted)
  half-life: 24.6 h
[1]; both sexes, human, oral, 100 mg/kg, OR, 100 mg/kg, N 12, read-out: HL (Half-life), Median (converted)
  half-life: 23.7 h
[1]; both sexes, human, oral, 100 mg/kg, 12 subjects, read-out: Absolute bioavailability, 90% confidence intervals
  bioavailability: 8.3 to 11%
[1]; [3]
  AUC(0-t): 29800 ng·h/mL
  AUC: 29100 ng·h/mL
[1]; both sexes, human, po, 100 mg/kg, read-out: Oral bioavailability
  bioavailability: ~10%
[1]; [4]
  AUC(0-t): 22900 ng·h/mL
  AUC: 22000 ng·h/mL
[1]; [5]
  AUC(0-t): 52100 ng·h/mL
  AUC: 52100 ng·h/mL
[1]; [6]
  refHalf_life, Max: 52.95
  refHalf_life, Mean: 31.351
  refHalf_life, Median: 28.81
  refHalf_life, Min: 22.85
[1]; dose normalized section, Test (oral data)
  testHalf life, Mean: 24.6 h
[1]; [7]
  testHalf_life, Max: 35.31
  testHalf_life, Median: 23.71
  testHalf_life, Min: 17.56
[1]; [8]
  refAUCinf, Max: 5219
  refAUCinf, Mean: 3299.58
  refAUCinf, Median: 3162.4
  refAUCinf, Min: 2118.74
  refAUClast, Max: 5084.78
  refAUClast, Mean: 3105.22
  refAUClast, Median: 2840.05
  refAUClast, Min: 1964.13
  refCL, Max: 0.059
  refCL, Mean: 0.038
  refCL, Median: 0.04
  refCL, Min: 0.016
  refCmax, Max: 1958.33
  refCmax, Mean: 1195.1
  refCmax, Median: 1148.13
  refCmax, Min: 675
[1]; [9]
  testAUCinf, Max: 456.96
  testAUCinf, Mean: 314.25
  testAUCinf, Min: 218.52
  testAUClast, Max: 442.5
  testAUClast, Mean: 298.07
  testAUClast, Min: 200.31
  testCL, Max: 0.046
  testCL, Mean: 0.033
  testCL, Min: 0.022
  testCmax, Max: 56.2
  testCmax, Mean: 32.84
  testCmax, Min: 19.5
[1]; from dose normalized AUCinf, 12 subjects
  Absolute bioavailability F of the oral vs IV formulation, Mean: 9.87%
[1]; oral
  Total clearance after oral administration corrected by the bioavailability value of F=9.87%: 5.83 mL/min/kg
[2]
  Adverse reaction Abdominal pain, Number of Patients (N) (%): 4 (5%) N (%)
  Adverse reaction Anemia, Number of Patients (N) (%): 4 (5%) N (%)
  Adverse reaction Anorexia, Number of Patients (N) (%): 2 (3%) N (%)
  Adverse reaction Diarrhea, Number of Patients (N) (%): 5 (5%) N (%)
  Adverse reaction Dysgeusia, Number of Patients (N) (%): 2 (3%) N (%)
  Adverse reaction Ear infection, Number of Patients (N) (%): 3 (4%) N (%)
  Adverse reaction Headache, Number of Patients (N) (%): 3 (4%) N (%)
  Adverse reaction Hemoglobin decreased, Number of Patients (N) (%): 2 (3%) N (%)
  Adverse reaction Hyperhidrosis, Number of Patients (N) (%): 2 (3%) N (%)
  Adverse reaction Infection, Number of Patients (N) (%): 3 (4%) N (%)
  Adverse reaction Influenza, Number of Patients (N) (%): 2 (3%) N (%)
  Adverse reaction Jaundice, Number of Patients (N) (%): 2 (3%) N (%)
  Adverse reaction Nasopharyngitis, Number of Patients (N) (%): 3 (4%) N (%)
  Adverse reaction Nervous system disorder, Number of Patients (N) (%): 2 (3%) N (%)
  Adverse reaction Pneumonia, Number of Patients (N) (%): 2 (3%) N (%)
  Adverse reaction Pyrexia, Number of Patients (N) (%): 7 (9%) N (%)
  Adverse reaction Rash, Number of Patients (N) (%): 2 (3%) N (%)
  Adverse reaction Somnolence, Number of Patients (N) (%): 2 (3%) N (%)
  Adverse reaction Tonsillitis, Number of Patients (N) (%): 4 (5%) N (%)
  Adverse reaction Transaminase increased, Number of Patients (N) (%): 2 (3%) N (%)
  Adverse reaction Vomiting, Number of Patients (N) (%): 6 (8%) N (%)
  Adverse reaction Weight decreased, Number of Patients (N) (%): 2 (3%) N (%)
